In patent US10577363B2, “Substituted piperidine compounds” (EPIZYME, INC., priority 2014, dated 2020):

Experiments:
[1] = system: esophageal, liver and breast cancer cell lines; conditions: several esophageal, dose-dependent; cited from earlier work
[2] = target: T1, SMYD3 (Homo sapiens (Human), UniProt Q9H7B4); assay: SMYD3 cell assay (Trimethyl-MEKK2 In-Cell Western in 293T/17 cells); type: cell-based
Outline: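 In-Cell Western ratio of trimethyl-Lys260 MEKK2 to anti-flag signal; percent inhibition from DMSO and maximum-inhibition controls, IC50 by non-linear regression, triplicates.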

[3] = target: T1, SMYD3; assay: SMYD3 biochemical assay (SPA, 3H-SAM methylation of MEKK2 protein substrate)
Outline: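 Full-length native human SMYD3 (E. coli-expressed, tags removed) preincubated with compounds 30 min at room temperature, then reaction started with 3H-SAM and GST-tagged MEKK2 protein in 25 mM Tris-Cl pH 8.0, 1 mM TCEP, 0.005% BSG, 0.005% Tween 20. Quenched with unlabelled SAM (100 uM final); 3H-MEKK2 counted by SPA.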

[4] = IC50 values are an average of n = 1 to n = 50, read-out: SMYD3 Cell IC50*
[5] = IC50 values are an average of n = 1 to n = 50, read-out: SMYD3 Biochem IC50*

T1 sequence (Q9H7B4 whole entry): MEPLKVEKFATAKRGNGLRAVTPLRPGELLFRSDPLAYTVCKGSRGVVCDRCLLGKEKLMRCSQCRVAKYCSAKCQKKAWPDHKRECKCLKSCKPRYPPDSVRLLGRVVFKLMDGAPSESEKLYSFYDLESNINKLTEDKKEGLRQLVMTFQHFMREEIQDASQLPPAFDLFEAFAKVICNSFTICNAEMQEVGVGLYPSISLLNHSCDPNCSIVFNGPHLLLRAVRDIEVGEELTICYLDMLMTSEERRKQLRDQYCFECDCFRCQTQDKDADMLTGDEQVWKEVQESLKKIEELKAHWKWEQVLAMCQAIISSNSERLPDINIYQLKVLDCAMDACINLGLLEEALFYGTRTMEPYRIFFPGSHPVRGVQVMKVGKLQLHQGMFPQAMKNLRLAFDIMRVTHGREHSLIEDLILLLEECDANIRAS

| Compound | inhibition of proliferation of cancer cell lines [1] | IC50 [2, 4] | IC50 [3, 5] | IC50 ([2]; Table 2A, read-out: SMYD3 Cell IC50) | IC50 ([3]; Table 2A, read-out: SMYD3 Biochem IC50) |
| --- | --- | --- | --- | --- | --- |
| Cc1cn(CCN2CCN(c3ccccc3-c3cc(C#N)cc(C(=O)NCCCN4CCCC4)c3)CC2)c2ccccc12 [LLY-507] | inhibited the proliferation |  |  |  |  |
| C[C@H]1CN(S(=O)(=O)N2CC[C@H](NC(=O)c3cc(C4CC4)on3)C[C@@H]2C)[C@@H](C)CN1 [compound 992, 5-cyclopropyl-N-((2S,4S)-1-(((2S,5S)-2,5-dimethylpiperazin-1-yl)sulfonyl)-2-methylpiperidin-4-yl)isoxazole-3-carboxamide] |  | 1120 nM | 188 nM |  |  |
| CC(C)Cc1cc(C(=O)N[C@H]2C[C@H]3CC[C@@H](C2)N3S(=O)(=O)CC2CCN(C)CC2)no1 [compound 993, 5-isobutyl-N-((1R,3r,5S)-8-(((1-methylpiperidin-4-yl)methyl)sulfonyl)-8-azabicyclo[3.2.1]octan-3-yl)isoxazole-3-carboxamide] |  | 2770 nM | 206 nM |  |  |
| N-((2S,4S)-1-(3,8-diaza-bicyclo[3.2.1]octan-8-ylsulfonyl)-2-methylpiperidin-4-yl)-5-cyclopropylisoxazole-3-carboxamide [Cpd. No. 555] |  |  |  | 23.9 nM | 3.7 nM |
